≈ marks a conversion by molar mass, not a printed value. Where two headings read alike, the source gives them in different places.
Assays:
[1] = system: M. abscessus 1513; assay: MIC/MBC by microbroth dilution (MH or 7H9 broth); format: cell-based, M. abscessus subsp. abscessus; conditions: Mycobacteroides abscessus, 1513; for MBC: 7H9 broth, read-out: MBC99 M. abscessus subsp. abscessus 1513
[2] = system: M. abscessus 103; assay: Acute SCID mouse infection efficacy model; conditions: SCID mice i.v. infected with M. abscessus 103; compounds 300 mg/kg PO in 20% cyclodextrin, AMI 150 mg/kg SQ, once daily 8 days
[3] = system: M. abscessus 103; assay: MIC/MBC by microbroth dilution (MH or 7H9 broth); format: cell-based, M. abscessus subsp. bolletii; conditions: Mycobacteroides abscessus, 103; for MBC: 7H9 broth, read-out: MBC99 M. abscessus subsp. bolletii 103
[4] = system: M. intracellulare 1956; assay: MIC, resazurin microtiter assay; format: cell-based; conditions: Mueller Hinton II; for MIC: read-out: MIC M. avium Intracellulare 1956
[5] = system: S. aureus ATCC25923; assay: MIC, resazurin microtiter assay; format: cell-based; conditions: Staphylococcus aureus, ATCC25923; Mueller Hinton II; read-out: MIC S. aureus ATCC25923
[6] = system: M. abscessus DCI #21; assay: MIC, resazurin microtiter assay; format: cell-based; conditions: for MIC: Mycobacteroides abscessus, read-out: MIC M. abscessus DCI #21; for Selectivity Index (TD50/MIC) M. abscessus DCI #21: TD50 in THP-1 cells
[7] = system: M. chelonae ATCC 35752; assay: MIC, resazurin microtiter assay; format: cell-based; conditions: for MIC: Mycobacteroides chelonae, ATCC35752, Mueller Hinton II, read-out: MIC M. chelonae ATCC 35752; for Selectivity index (TD50/MIC): TD50 in THP-1 cells
[8] = system: P. aeruginosa PAO-1; assay: MIC, resazurin microtiter assay; format: cell-based, Pseudomonas aeruginosa; conditions: Mueller Hinton II; for MIC: Pseudomonas aeruginosa, PAO1, read-out: MIC P. aeruginosa PAO-1
[9] = system: M. xenopi WT; assay: MIC, resazurin microtiter assay; format: cell-based; conditions: Mueller Hinton II; for MIC: Mycobacterium xenopi, read-out: MIC M. xenopi WT
[10] = system: M. massiliense CIP 108297; assay: MIC, resazurin microtiter assay; format: cell-based; conditions: for MIC: Mycobacteroides abscessus, CIP108297, Mueller Hinton II, read-out: MIC M. massiliense CIP 108297
[11] = system: M. bolletii ATCC 14472; assay: MIC, resazurin microtiter assay; format: cell-based; conditions: for MIC: Mycobacteroides abscessus, ATCC14472, Mueller Hinton II, read-out: MIC M. bolletii ATCC 14472; for Selectivity Index (TD50/MIC) M. bolletii: TD50 in THP-1 cells
[12] = system: mycobacteria; assay: organism not typed; format: cell-based; conditions: lowest concentration reducing CFU by 90% relative to the inoculum; strain not stated; read-out: MBC90
[13] = system: M. massiliense CRM 0019; assay: MIC, resazurin microtiter assay; format: cell-based; conditions: for MIC: Mycobacteroides abscessus, CRM0019, Mueller Hinton II, read-out: MIC M. massiliense CRM 0019; for Selectivity Index (TD50/MIC) M. Massiliense CRM0019: TD50 in THP-1 cells
[14] = system: M. abscessus ATCC 19977; assay: MIC, resazurin microtiter assay; format: cell-based; conditions: Mueller Hinton II; for MIC: Mycobacteroides abscessus, ATCC19977, read-out: MIC M. abscessus ATCC 19977
[15] = system: M. smegmatis mc^2155; assay: MIC, resazurin microtiter assay; format: cell-based; conditions: for MIC: Mycolicibacterium smegmatis, MC^2155, 7H9-ADC-0.05% Tween 80, read-out: MIC M. smeg. mc^2155
[16] = system: M. avium 104; assay: MIC, resazurin microtiter assay; format: cell-based; conditions: Mueller Hinton II; for MIC: Mycobacterium avium, 104, read-out: MIC M. avium 104
[17] = system: M. massiliense strain 1513; assay: Metabolic labeling and mycolic acid analysis; conditions: 4x and 10x MIC, 16 hr, [1,2-14C]acetate labeling, TLC
Experimental: Cultures of M. massiliense 1513 grown to mid log-phase in Mueller-Hinton II broth were incubated with different concentrations of inhibitors for 16 hr at 37° C. with shaking. 0.5 μCi/mL [1,2-^14C]acetic acid (specific activity, 52 Ci/mol, PerkinElmer Inc.) was added at the same time as the inhibitors. Total lipids and cell wall-bound mycolic acid methyl esters were prepared from treated and untreated cells and analyzed by TLC as described in Grzegorzewicz et al, Nature Chemical Biology, 2012, 8:334+341.

[18] = system: M. tuberculosis H37Rv mc^26206; assay: microbe, parasite or virus in culture; format: cell-based; conditions: for Selectivity Index (TD50/MIC) M. tb H37Rv: TD50 in THP-1 cells; for MIC: Mycobacterium tuberculosis, H37RV, read-out: MIC M. tb H37 Rv (mc2-6206)
[19] = system: THP-1 cells; assay: Cytotoxicity assay, THP-1 cell viability (CellTiter-Glo); format: cell-based, human; conditions: 3 days
Experimental: The cytotoxicity of compounds was determined by measuring THP-1 cell viability after 3 days in the presence of test compounds. Compounds were prepared as 10-point serial dilutions in DMSO. The highest concentration of compound tested was 50 μM where compounds were soluble in DMSO at 10 mM. THP-1 cells were cultured in complete RPMI and differentiated into macrophage-like cells using 80 nM PMA overnight at 37° C., 5% CO2. Cells were inoculated into assay plates and cultured for 24 h before compound dilutions were added to a final DMSO concentration of 0.5%. Each run included staurosporine as a control. Assay plates were incubated for 3 days at 37° C., 5% CO2, growth was measured using the CellTiter-Glo® Luminescent Cell Viability Assay (Promega) which uses ATP as an indicator of cell viability. Relative luminescent units (RLU) were measured using a Biotek Synergy 4 plate reader. The dose response curve was fitted using the Levenberg-Marquardt algorithm.

[20] = read-out: MIC M. abscessus 1513, 7H9 Broth
[21] = read-out: MIC M. abscessus 1513, MH Broth
[22] = read-out: MIC M. abscessus 103, 7H9 Broth
[23] = read-out: MIC M. abscessus 103, MH Broth

Structure (SMILES) | MIC [1, 20] [mg/L] | MIC [1, 21] [mg/L] | MIC [3, 22] [mg/L] | MIC [3, 23] [mg/L] | MIC [4] [mg/L] | MIC [5] [mg/L] | MIC ([6]; Mueller Hinton II) [mg/L] | MIC [7] [mg/L] | MIC P. aeruginosa PAO-1 [8] | MIC [8] [mg/L] | MIC [9] [mg/L] | MIC [10] [mg/L] | MIC [11] [mg/L] | MBC [12] [mg/L] | MIC [13] [mg/L] | MIC [14] [mg/L] | MIC [15] [mg/L] | MIC [16] [mg/L] | MIC [18] [mg/L] | other results
NCC[C@H](O)C(=O)N[C@@H]1C[C@H](N)[C@@H](O[C@H]2O[C@H](CN)[C@@H](O)[C@H](O)[C@H]2O)[C@H](O)[C@H]1O[C@H]1O[C@H](CO)[C@@H](O)[C@H](N)[C@H]1O [amikacin, reference compound] | > 64 | > 64 | 8 (≈ 13.7 µM) | 4 (≈ 6.83 µM) | – | – | – | – | – | – | – | – | – | – | – | – | – | – | – | MBC [1]: > 64 mg/L; log10 CFU liver counts on day 12 [2]: 4.03±0.62 log10 CFU; log10 CFU lung counts on day 12 [2]: 3.52±0.22 log10 CFU; log10 CFU spleen counts on day 12 [2]: 3.12±0.30 log10 CFU; MBC [3]: > 64 mg/L
CC[C@H]1OC(=O)[C@H](C)[C@@H](O[C@H]2C[C@@](C)(OC)[C@@H](O)[C@H](C)O2)[C@H](C)[C@@H](O[C@@H]2O[C@H](C)C[C@H](N(C)C)[C@H]2O)[C@](C)(OC)C[C@@H](C)C(=O)[C@H](C)[C@@H](O)[C@]1(C)O [clarithromycin, reference compound] | > 64 | > 64 | 16 (≈ 21.4 µM) | 4 (≈ 5.35 µM) | – | – | – | – | – | – | – | – | – | – | – | – | – | – | – | MBC [1]: > 64 mg/L; MBC [3]: > 64 mg/L
Cc1cc(C)c2cc(C(=O)NC3CCCCCC3)[nH]c2c1 [Compound 26, N-cycloheptyl-4,6-dimethyl-1H-indole-2-carboxamide] | – | – | – | – | 4 (≈ 14.1 µM) | > 160 | ≤ 0.06 | ≤ 0.06 | inactive | > 160 | 0.06 to 0.12 (≈ 0.211 to 0.422 µM) | ≤ 0.06 | ≤ 0.06 | 0.015 (≈ 0.0527 µM) | ≤ 0.06 | ≤ 0.06 | 0.625 (≈ 2.2 µM) | 2 (≈ 7.03 µM) | – | –
Cc1cc(C)c2cc(C(=O)NC3CCC(C)CC3)[nH]c2c1 (stereo not shown) [Compound 30, N-4-methylcyclohexyl-4,6-dimethyl-1H-indole-2-carboxamide] | – | – | – | – | – | > 160 | – | – | inactive | > 160 | – | – | – | 0.03 (≈ 0.105 µM) | – | – | – | – | – | MIC M. avium Intracellulare 1956 [4]: >32 mg/L; MIC M. abscessus DCI #21 ([6]; Mueller Hinton II): ≤0.06 mg/L; MIC M. chelonae ATCC 35752 ([7]; Mueller Hinton II): ≤0.06 mg/L; MIC M. xenopi WT [9]: 0.5 to 1 mg/L; MIC M. massiliense CIP 108297 ([10]; Mueller Hinton II): ≤0.06 mg/L; MIC M. bolletii ATCC 14472 ([11]; Mueller Hinton II): ≤0.06 mg/L; MIC M. massiliense CRM 0019 ([13]; Mueller Hinton II): ≤0.06 mg/L; MIC M. abscessus ATCC 19977 [14]: ≤0.06 mg/L; MIC M. smeg. mc^2155 ([15]; 7H9-ADC-0.05% Tween 80): >20 mg/L; MIC M. avium 104 [16]: >32 mg/L
Cc1cc(C)c2cc(C(=O)N[C@@H]3C[C@@H]4C[C@H]([C@H]3C)C4(C)C)[nH]c2c1 [Compound 31, N-((1R,2R,3R,5S)-2,6,6-trimethylbicyclo[3.1.1]heptan-3-yl)-4,6-dimethyl-1H-indole-2-carboxamide] | > 64 | > 64 | > 64 | 16 (≈ 49.3 µM) | 2 (≈ 6.16 µM) | > 160 | 0.125 (≈ 0.385 µM) | 0.125 (≈ 0.385 µM) | inactive | > 160 | 0.25 to 1 (≈ 0.77 to 3.08 µM) | 0.125 (≈ 0.385 µM) | 0.125 (≈ 0.385 µM) | – | 0.125 (≈ 0.385 µM) | 0.125 (≈ 0.385 µM) | 1.25 to 2.5 (≈ 3.85 to 7.7 µM) | 2 (≈ 6.16 µM) | – | TMM build-up and mycolic acid transfer onto arabinogalactan and TDM [17]: concentration-dependent build-up of TMM; Selectivity Index (TD50/MIC) M. tb H37Rv [18]: >830; Selectivity Index (TD50/MIC) M. abscessus DCI #21 [6]: >130; Selectivity index (TD50/MIC) [7]: >130; Selectivity Index (TD50/MIC) M. bolletii [11]: >130; Selectivity Index (TD50/MIC) M. Massiliense CRM0019 [13]: >130; TD50 [19]: >16.2 µg/mL
CCCCCCCNC(=O)c1cc2c(C)cc(C)cc2[nH]1 [Compound 32, N-heptyl-4,6-dimethyl-1H-indole-2-carboxamide] | – | – | – | – | > 32 | – | > 32 | > 32 | – | – | > 32 | > 32 | 32 (≈ 112 µM) | – | > 32 | > 32 | 5 (≈ 17.5 µM) | > 32 | > 5 | –
O=C(NC1C2CC3CC(C2)CC1C3)c1cc2ccccc2[nH]1 (stereo not shown) [Compound 9, N-(2-adamantyl)-1H-indole-2-carboxamide] | – | – | – | – | > 32 | – | > 32 | > 32 | – | – | 2 (≈ 6.79 µM) | > 32 | 32 (≈ 109 µM) | – | 32 (≈ 109 µM) | > 32 | > 25 | > 32 | 0.39 (≈ 1.32 µM) | –
C[C@@H]1[C@H]2C[C@@H](C[C@H]1NC(=O)c1cc3ccccc3[nH]1)C2(C)C [Compound 16, N-((1R,2R,3R,5S)-2,6,6-trimethylbicyclo[3.1.1]heptan-3-yl)-1H-indole-2-carboxamide] | > 64 | > 64 | > 64 | 16 (≈ 54 µM) | 8 (≈ 27 µM) | 40 (≈ 135 µM) | 0.5 (≈ 1.69 µM) | < 0.06 | inactive | > 160 | 0.5 to 1 (≈ 1.69 to 3.37 µM) | 0.06 (≈ 0.202 µM) | 0.12 (≈ 0.405 µM) | 0.06 (≈ 0.202 µM) | 0.06 (≈ 0.202 µM) | 0.12 (≈ 0.405 µM) | 0.78 (≈ 2.63 µM) | 8 (≈ 27 µM) | 0.05 (≈ 0.169 µM) | TMM build-up and mycolic acid transfer onto arabinogalactan and TDM [17]: concentration-dependent build-up of TMM; Selectivity Index (TD50/MIC) M. tb H37Rv [18]: 226; Selectivity Index (TD50/MIC) M. abscessus DCI #21 [6]: 22.6; Selectivity index (TD50/MIC) [7]: >188; Selectivity Index (TD50/MIC) M. bolletii [11]: 92; Selectivity Index (TD50/MIC) M. Massiliense CRM0019 [13]: 188; TD50 [19]: 11.3 µg/mL

Source: US10383848B2, “Indole-based therapeutics” (Creighton University, priority 2016, dated 2019)
